molecular target: human ERK-2 (Mitogen Activated Kinase 1) (Homo sapiens (Human), UniProt P28482); experiment: ERK-2 Enzymatic Assay; assay type: biochemical; conditions: human ERK-2 enzyme 5 nM, 25 μM ATP, S/T17 peptide substrate; isomer = configuration of CR2R3
How it was run: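 Recombinant human ERK-2 (aa 8-360, N-terminal 6-His, E. coli) with 3-fold serially diluted compound. Per-well rates from linear fits converted to percent of control; IC50 by four-parameter fit.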

Chain of human ERK-2 (Mitogen Activated Kinase 1) (P28482 8-360): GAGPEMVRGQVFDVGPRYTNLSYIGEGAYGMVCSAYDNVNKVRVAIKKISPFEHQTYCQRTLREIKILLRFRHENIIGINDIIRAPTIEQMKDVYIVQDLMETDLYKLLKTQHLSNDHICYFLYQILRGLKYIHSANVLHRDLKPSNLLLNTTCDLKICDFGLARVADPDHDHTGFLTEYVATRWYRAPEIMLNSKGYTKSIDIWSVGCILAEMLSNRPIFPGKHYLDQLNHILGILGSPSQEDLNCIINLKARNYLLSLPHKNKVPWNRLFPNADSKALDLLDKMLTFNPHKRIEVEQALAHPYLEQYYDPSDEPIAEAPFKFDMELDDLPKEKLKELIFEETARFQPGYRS

SMILES	IC50 [nM]
Cn1nccc1Nc1nccc(-c2cc3n4c(nnc4c2)[C@@H](Cc2ccc(Cl)cc2)CN3)n1 [(S) I-5, 4-(3-(4-chlorobenzyl)-4,5-dihydro-3H-1,2,2a^1,5-tetraazaacenaphthylen-7-yl)-N-(1-methyl-1H-pyrazol-5-yl)pyrimidin-2-amine]	< 0.02
Cn1nccc1Nc1cc(-c2cc3n4c(nnc4c2)[C@@H](Cc2ccccc2)CN3)ccn1 [(S) I-7, 4-(3-benzyl-4,5-dihydro-3H-1,2,2a^1,5-tetraazaacenaphthylen-7-yl)-N-(1-methyl-1H-pyrazol-5-yl)pyridin-2-amine]	< 0.02
Cn1nccc1Nc1cc(-c2cc3n4c(ncc4c2)[C@@H](Cc2ccc(Cl)cc2)CN3)ccn1 [(S) I-8, 4-(3-(4-chlorobenzyl)-4,5-dihydro-3H-1,2,2a^1,5-tetraazaacenaphthylen-7-yl)-N-(1-methyl-1H-pyrazol-5-yl)pyridin-2-amine]	< 0.02
Cn1nccc1Nc1nccc(-c2cc3n4c(nnc4c2)[C@@H](Cc2ccc(Cl)c(F)c2)CN3)n1 [(S) I-14, 4-(3-(4-chloro-3-fluorobenzyl)-4,5-dihydro-3H-1,2,2a^1,5-tetraazaacenaphthylen-7-yl)-N-(1-methyl-1H-pyrazol-5-yl)pyrimidin-2-amine]	< 0.02
Cn1nccc1Nc1nccc(-c2cc3n4c(nnc4c2)[C@H](Cc2ccccc2)CO3)n1 [(S) I-15, 4-(3-benzyl-3,4-dihydro-5-oxa-1,2,2a^1-triazaacenaphthylen-7-yl)-N-(1-methyl-1H-pyrazol-5-yl)pyrimidin-2-amine]	2.24
COc1ccc(C[C@H]2CN(C)c3cc(-c4ccnc(Nc5ccnn5C)c4)cc4nnc2n34)cc1 [(S) I-18, 4-(3-(4-methoxybenzyl)-5-methyl-4,5-dihydro-3H-1,2,2a^1,5-tetraazaacenaphthylen-7-yl)-N-(1-methyl-1H-pyrazol-5-yl)pyridin-2-amine]	55.8
CC(C)C[C@H]1CN(C)c2cc(-c3ccnc(Nc4ccnn4C)c3)cc3nnc1n23 [(S) I-20, 4-(3-isobutyl-5-methyl-4,5-dihydro-3H-1,2,2a^1,5-tetraazaacenaphthylen-7-yl)-N-(1-methyl-1H-pyrazol-5-yl)pyridin-2-amine]	0.316
Cn1nccc1Nc1nccc(-c2cc3n4c(nnc4c2)[C@@H](Cc2ccc(F)cc2)CN3)n1 [(S) I-21, 4-(3-(4-fluorobenzyl)-4,5-dihydro-3H-1,2,2a^1,5-tetraazaacenaphthylen-7-yl)-N-(1-methyl-1H-pyrazol-5-yl)pyrimidin-2-amine]	< 0.02
CN1C(=O)C[C@H](Cc2ccc(Cl)cc2)c2nnc3cc(-c4ccnc(Nc5ccnn5C)n4)cc1n23 [(S) I-22, 9-(4-chlorobenzyl)-6-methyl-4-(2-((1-methyl-1H-pyrazol-5-yl)amino)pyrimidin-4-yl)-8,9-dihydro-1,2,2a^1,6-tetraazabenzo[cd]azulen-7(6H)-one]	< 0.02
COc1ccc(C[C@H]2CNc3cc(-c4ccnc(Nc5ccnn5C)n4)cc4nnc2n34)cn1 [(S) I-24, 4-(3-((6-methoxypyridin-3-yl)methyl)-4,5-dihydro-3H-1,2,2a^1,5-tetraazaacenaphthylen-7-yl)-N-(1-methyl-1H-pyrazol-5-yl)pyrimidin-2-amine]	< 0.02
Cn1nccc1Nc1nccc(-c2cc3n4c(nnc4c2)[C@@H](COCc2ccccc2)CCO3)n1 [(S) I-29, 4-(9-((benzyloxy)methyl)-8,9-dihydro-7H-6-oxa-1,2,2a^1-triazabenzo[cd]azulen-4-yl)-N-(1-methyl-1H-pyrazol-5-yl)pyrimidin-2-amine]	< 0.02
Cn1nccc1Nc1cc(-c2cc3n4c(nnc4c2)[C@@H](Cc2ccccc2Cl)CCO3)ccn1 [(S) I-30, 4-(9-(2-chlorobenzyl)-8,9-dihydro-7H-6-oxa-1,2,2a^1-triazabenzo[cd]azulen-4-yl)-N-(1-methyl-1H-pyrazol-5-yl)pyridin-2-amine]	< 0.02
CN1C[C@H](Cc2ccc(F)cc2)c2nnc3cc(-c4ccnc(Nc5ccnn5C)n4)cc1n23 [(S) I-31, 4-(3-(4-fluorobenzyl)-5-methyl-4,5-dihydro-3H-1,2,2a^1,5-tetraazaacenaphthylen-7-yl)-N-(1-methyl-1H-pyrazol-5-yl)pyrimidin-2-amine]	< 0.02
Cn1nccc1Nc1nccc(-c2cc3n4c(nnc4c2)[C@@H](Cc2ccc(Cl)cc2)CCO3)n1 [(S) I-36, 4-(9-(4-chlorobenzyl)-8,9-dihydro-7H-6-oxa-1,2,2a^1-triazabenzo[cd]azulen-4-yl)-N-(1-methyl-1H-pyrazol-5-yl)pyrimidin-2-amine]	< 0.02
CN1C(=O)C[C@H](Cc2ccc(Cl)cc2)c2nnc3cc(-c4ccnc(Nc5ccnn5C)c4)cc1n23 [(S) I-40, 9-(4-chlorobenzyl)-6-methyl-4-(2-((1-methyl-1H-pyrazol-5-yl)amino)pyridin-4-yl)-8,9-dihydro-1,2,2a^1,6-tetraazabenzo[cd]azulen-7(6H)-one]	< 0.02
Cn1nccc1Nc1nccc(-c2cc3n4c(nnc4c2)[C@H](Cc2ccc(F)cc2)CO3)n1 [(S) I-44, 4-(3-(4-fluorobenzyl)-3,4-dihydro-5-oxa-1,2,2a^1-triazaacenaphthylen-7-yl)-N-(1-methyl-1H-pyrazol-5-yl)pyrimidin-2-amine]	5
CC(C)C[C@@H]1COc2cc(-c3ccnc(Nc4ccnn4C)n3)cc3nnc1n23 [(S) I-45, 4-(3-isobutyl-3,4-dihydro-5-oxa-1,2,2a^1-triazaacenaphthylen-7-yl)-N-(1-methyl-1H-pyrazol-5-yl)pyrimidin-2-amine]	20.9
COc1ccc(C[C@@H]2COc3cc(-c4ccnc(Nc5ccnn5C)n4)cc4nnc2n34)cc1F [(S) I-46, 4-(3-(3-fluoro-4-methoxybenzyl)-3,4-dihydro-5-oxa-1,2,2a^1-triazaacenaphthylen-7-yl)-N-(1-methyl-1H-pyrazol-5-yl)pyrimidin-2-amine]	2.47
Cn1nccc1Nc1cc(-c2cc3n4c(nnc4c2)[C@H](Cn2cc(Cl)cn2)CCO3)ccn1 [(S) I-47, 4-(9-((4-chloro-1H-pyrazol-1-yl)methyl)-8,9-dihydro-7H-6-oxa-1,2,2a^1-triazabenzo[cd]azulen-4-yl)-N-(1-methyl-1H-pyrazol-5-yl)pyridin-2-amine]	0.465
COc1ccc(C[C@@H]2COc3cc(-c4ccnc(Nc5ccnn5C)n4)cc4nnc2n34)cc1 [(S) I-50, 4-(3-(4-methoxybenzyl)-3,4-dihydro-5-oxa-1,2,2a^1-triazaacenaphthylen-7-yl)-N-(1-methyl-1H-pyrazol-5-yl)pyrimidin-2-amine]	7.12
Cn1nccc1Nc1nccc(-c2cc3n4c(nnc4c2)[C@H](Cn2cc(C4CC4)cn2)CCO3)n1 [(S) I-56, 4-(9-((4-cyclopropyl-1H-pyrazol-1-yl)methyl)-8,9-dihydro-7H-6-oxa-1,2,2a^1-triazabenzo[cd]azulen-4-yl)-N-(1-methyl-1H-pyrazol-5-yl)pyrimidin-2-amine]	1.39

Results, then the compound that gave them:

IC50 [nM]	SMILES
< 0.02	CN1C[C@H](Cc2ccccc2)c2nnc3cc(-c4ccnc(Nc5ccnn5C)n4)cc1n23 [(S) I-9, 4-(3-benzyl-5-methyl-4,5-dihydro-3H-1,2,2a^1,5-tetraazaacenaphthylen-7-yl)-N-(1-methyl-1H-pyrazol-5-yl)pyrimidin-2-amine]
< 0.02	CC(C)C[C@H]1CNc2cc(-c3ccnc(Nc4ccnn4C)n3)cc3nnc1n23 [(S) I-10, 4-(3-isobutyl-4,5-dihydro-3H-1,2,2a^1,5-tetraazaacenaphthylen-7-yl)-N-(1-methyl-1H-pyrazol-5-yl)pyrimidin-2-amine]
< 0.02	COc1ccc(C[C@H]2CNc3cc(-c4ccnc(Nc5ccnn5C)n4)cc4nnc2n34)cc1 [(S) I-11, 4-(3-(4-methoxybenzyl)-4,5-dihydro-3H-1,2,2a^1,5-tetraazaacenaphthylen-7-yl)-N-(1-methyl-1H-pyrazol-5-yl)pyrimidin-2-amine]
< 0.02	COc1ccc(C[C@H]2CNc3cc(-c4ccnc(Nc5ccnn5C)n4)cc4nnc2n34)cc1F [(S) I-12, 4-(3-(3-fluoro-4-methoxybenzyl)-4,5-dihydro-3H-1,2,2a^1,5-tetraazaacenaphthylen-7-yl)-N-(1-methyl-1H-pyrazol-5-yl)pyrimidin-2-amine]
4.34	Cn1nccc1Nc1cc(-c2cc3n4c(nnc4c2)[C@H](Cc2ccccc2)CO3)ccn1 [(S) I-38, 4-(3-benzyl-3,4-dihydro-5-oxa-1,2,2a^1-triazaacenaphthylen-7-yl)-N-(1-methyl-1H-pyrazol-5-yl)pyridin-2-amine]
0.131	Cn1nccc1Nc1nccc(-c2cc3n4c(nnc4c2)[C@H](Cn2cc(Cl)cn2)CCO3)n1 [(S) I-42, (S)-4-(9-((4-Chloro-1H-pyrazol-1-yl)methyl)-8,9-dihydro-7H-6-oxa-1,2,2a^1-triazabenzo[cd]azulen-4-yl)-N-(1-methyl-1H-pyrazol-5-yl)pyrimidin-2-amine]
1.33	COc1ncccc1C[C@H]1CN(C)c2cc(-c3ccnc(Nc4ccnn4C)n3)cc3nnc1n23 [(S) I-43, 4-(3-((2-methoxypyridin-3-yl)methyl)-5-methyl-4,5-dihydro-3H-1,2,2a^1,5-tetraazaacenaphthylen-7-yl)-N-(1-methyl-1H-pyrazol-5-yl)pyrimidin-2-amine]
12.3	Cn1nccc1Nc1cc(-c2cc3n4c(nnc4c2)[C@H](Cc2ccc(Cl)cc2)CO3)ccn1 [(S) I-48, 4-(3-(4-chlorobenzyl)-3,4-dihydro-5-oxa-1,2,2a^1-triazaacenaphthylen-7-yl)-N-(1-methyl-1H-pyrazol-5-yl)pyridin-2-amine]
22.3	Cn1nccc1Nc1cc(-c2cc3n4c(nnc4c2)[C@H](Cc2ccc(F)c(F)c2)CO3)ccn1 [(S) I-54, 4-(3-(3,4-difluorobenzyl)-3,4-dihydro-5-oxa-1,2,2a^1-triazaacenaphthylen-7-yl)-N-(1-methyl-1H-pyrazol-5-yl)pyridin-2-amine]
0.311	Cn1nccc1Nc1nccc(-c2cc3n4c(nnc4c2)[C@@H](Cc2ccc(F)cc2)CCO3)n1 [(S) I-58, 4-(9-(4-fluorobenzyl)-8,9-dihydro-7H-6-oxa-1,2,2a^1-triazabenzo[cd]azulen-4-yl)-N-(1-methyl-1H-pyrazol-5-yl)pyrimidin-2-amine]
